Laboratory results as given in ChEMBL document CHEMBL1201862, “PubChem BioAssay data set” (2004).
“And” between values parts separate entries of the source, which are not always exact repeats. Equal entries are not always repeated.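 Test compounds were applied to cells in 96-well plates for 48 hours at 5 doses. The concentration for 50% growth inhibition is given as GI50.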 The source made the active and inactive calls. Cut-off read from the data, not from the text of the source: active = GI50 up to about 1.1 µM and inactive = higher.

How the values were obtained:
Experiment in all cases: inhibition of tumour cell growth, NCI panel, 48 h
[1] = system: UACC-257
[2] = system: MOLT-4
[3] = system: COLO 205
[4] = system: SK-MEL-28
[5] = system: HCC 2998
[6] = system: SF-539
[7] = system: NCI-H460
[8] = system: HT-29
[9] = system: A549
[10] = system: SF-268
[11] = system: ACHN
[12] = system: HOP-92
[13] = system: SK-OV-3
[14] = system: DMS-114
[15] = system: KM12
[16] = system: NCI-H522
[17] = system: BT-549
[18] = system: PC-3
[19] = system: MDA-MB-435
[20] = system: NCI/ADR-RES

SMILES	GI50 [1]	GI50 [2]	GI50 [3]	GI50 [4]	GI50 [5]	GI50 [6]	GI50 [7]	GI50 [8]	GI50 [9]	GI50 [10]	GI50 [11]	GI50 [12]	GI50 [13]	GI50 [14]	GI50 [15]	GI50 [16]	GI50 [17]	GI50 [18]	GI50 [19]	GI50 [20]
CN=[S+]([O-])(c1ccccc1)c1ccccc1	> 100 µM (inactive)	> 100 µM (inactive)	> 100 µM (inactive)	> 100 µM (inactive)	> 100 µM (inactive)	> 100 µM (inactive)	> 100 µM (inactive)	> 100 µM (inactive)	> 100 µM (inactive)	> 100 µM (inactive)	> 100 µM (inactive)	> 100 µM (inactive)	> 100 µM (inactive)	> 100 µM (inactive)	> 100 µM (inactive)	> 100 µM (inactive)				
CCOC(=O)N1Cc2ccoc2C1	> 100 µM (inactive)	> 100 µM (inactive)	> 100 µM (inactive)	> 100 µM (inactive)	> 100 µM (inactive)	> 100 µM (inactive)	> 100 µM (inactive)	> 100 µM (inactive)	43.7 µM (inactive)	0.769 µM (active)	> 100 µM (inactive)	> 100 µM (inactive)	> 100 µM (inactive)	> 100 µM (inactive)	> 100 µM (inactive)	> 100 µM (inactive)				
CCCc1cc(-c2ccc(-c3cc(CCC)c(C=O)[nH]3)s2)[nH]c1C=O	> 100 µM (inactive)	2.9 µM (inactive)	4.83 µM (inactive)	63 µM (inactive)	5.56 µM (inactive)	> 100 µM (inactive)	5.2 µM (inactive)	2.18 µM (inactive)	4.42 µM (inactive)	> 84.7 µM (inactive)	> 26.7 µM (inactive)	27.5 µM (inactive)	> 56.9 µM (inactive)	8.77 µM (inactive)	> 27.9 µM (inactive)	5.45 µM (inactive)	25.9 µM (inactive)	26.5 µM (inactive)	15.5 µM (inactive)	18.4 µM (inactive)
CC(C)(CCl)NC(=O)c1cccc(C(=O)NC(C)(C)CCl)n1		> 100 µM (inactive)	> 100 µM (inactive)	> 100 µM (inactive)	> 100 µM (inactive)	> 100 µM (inactive)	> 100 µM (inactive)	> 100 µM (inactive)	> 100 µM (inactive)	> 100 µM (inactive)	> 100 µM (inactive)	> 100 µM (inactive)	> 100 µM (inactive)	> 100 µM (inactive)	> 100 µM (inactive)	> 100 µM (inactive)				
O=C(CC(=O)C1=CNc2ccccc2S1)C(=O)Nc1ccc(Cl)cc1	> 50 µM (inactive)	> 50 µM (inactive)	> 50 µM (inactive)	> 50 µM (inactive)	> 50 µM (inactive)	> 50 µM (inactive)	> 50 µM (inactive)	> 50 µM (inactive)	> 50 µM (inactive)	> 50 µM (inactive)	> 50 µM (inactive)	> 50 µM (inactive)	> 50 µM (inactive)	> 50 µM (inactive)	> 50 µM (inactive)	> 50 µM (inactive)				
CCCCCCCCCCCCCCCCc1c(O)nc(NC#N)nc1C(=O)OC	> 25 µM (inactive)	> 25 µM (inactive)	> 25 µM (inactive)	> 25 µM (inactive)	> 25 µM (inactive)	> 25 µM (inactive)	> 25 µM (inactive)	> 25 µM (inactive)	> 25 µM (inactive)	> 25 µM (inactive)	> 25 µM (inactive)	> 25 µM (inactive)	> 25 µM (inactive)	> 25 µM (inactive)	> 25 µM (inactive)	> 25 µM (inactive)				
CC1CN1c1c(C(=O)/C=C/c2ccc(Cl)cc2)c(-c2ccccc2)nn(C)c1=O (stereo not given)	3.67 µM (inactive)	2.24 µM (inactive)	1.96 µM (inactive)	3.89 µM (inactive)	1.99 µM (inactive)	1.94 µM (inactive)	2.28 µM (inactive)	3.65 µM (inactive)	4.42 µM (inactive)	3.98 µM (inactive)	2.33 µM (inactive)	> 10 µM (inactive)	2.59 µM (inactive)	3.65 µM (inactive)	3.3 µM (inactive)	2.18 µM (inactive)				
N#C/C(=C\c1ccc(O)cc1)C(N)=O	> 100 µM (inactive)	> 100 µM (inactive)	> 100 µM (inactive)	> 100 µM (inactive)	> 100 µM (inactive)	> 100 µM (inactive)	> 100 µM (inactive)	> 100 µM (inactive)	> 100 µM (inactive)	> 100 µM (inactive)	> 100 µM (inactive)	> 100 µM (inactive)	> 100 µM (inactive)	> 100 µM (inactive)	> 100 µM (inactive) and > 74.6 µM (inactive)					> 100 µM (inactive)
COC(=O)C(=O)C(C#N)c1nc2ccccc2s1 (stereo not given)	> 100 µM (inactive)	60.4 µM (inactive)	> 100 µM (inactive)	> 100 µM (inactive)	> 100 µM (inactive)	98.9 µM (inactive)	63.4 µM (inactive)	66.4 µM (inactive)	> 100 µM (inactive)	> 100 µM (inactive)	> 100 µM (inactive)	> 100 µM (inactive)	> 100 µM (inactive)	> 100 µM (inactive)		> 100 µM (inactive)				
CCOC(=O)c1cn(CC)c2cc3c(cc2c1=O)SCS3	> 100 µM (inactive)	> 100 µM (inactive)	> 100 µM (inactive)	> 100 µM (inactive)	> 100 µM (inactive)	> 100 µM (inactive)	> 100 µM (inactive)	> 100 µM (inactive)	> 100 µM (inactive)	> 100 µM (inactive)	> 100 µM (inactive)	> 100 µM (inactive)	> 100 µM (inactive)	> 100 µM (inactive)	> 100 µM (inactive)	> 100 µM (inactive)				
NC(=S)N/N=C(\CCC(=O)Nc1ccccc1[N+](=O)[O-])CC(=O)c1ccco1	> 100 µM (inactive)	> 100 µM (inactive)	> 100 µM (inactive)	> 100 µM (inactive)	> 100 µM (inactive)	> 100 µM (inactive)	> 100 µM (inactive)	> 100 µM (inactive)	> 100 µM (inactive)	> 100 µM (inactive)	> 100 µM (inactive)	> 100 µM (inactive)	> 100 µM (inactive)	> 100 µM (inactive)	> 100 µM (inactive)	> 100 µM (inactive)				
O=C(N/N=C1\C(=O)N(c2nccs2)C(=O)C(=O)C1c1nc2ccccc2s1)c1ccccc1O (stereo not given)	35.7 µM (inactive)		> 100 µM (inactive)	88.1 µM (inactive)	15 µM (inactive)	28.1 µM (inactive)	53.3 µM (inactive)	> 100 µM (inactive)	52.1 µM (inactive)	12.1 µM (inactive)	28.6 µM (inactive)	> 100 µM (inactive)	> 100 µM (inactive)	28.3 µM (inactive)	54.5 µM (inactive)	30.2 µM (inactive)				
Cc1nc2c(nc1C)C(=O)C1=C(C2=O)C2C=CC1CC2	4.31 µM (inactive)	1.32 µM (inactive)	14.9 µM (inactive)	18.3 µM (inactive)	29.4 µM (inactive)	13.8 µM (inactive)	17.9 µM (inactive)	13.9 µM (inactive)	19.4 µM (inactive)	5.42 µM (inactive)	11.7 µM (inactive)	1.97 µM (inactive)	40.3 µM (inactive)	1.75 µM (inactive)	13.5 µM (inactive)	4.35 µM (inactive)				
COc1ccccc1C(O)(c1ccccc1)C(O)(c1ccccc1)c1ccccc1OC (stereo not given)	> 100 µM (inactive)	48.1 µM (inactive)	> 100 µM (inactive)	> 100 µM (inactive)	> 100 µM (inactive)	> 100 µM (inactive)	> 100 µM (inactive)	> 100 µM (inactive)	> 100 µM (inactive)	> 100 µM (inactive)	> 100 µM (inactive)	20.3 µM (inactive)	> 31.6 µM (inactive)	> 100 µM (inactive)	> 100 µM (inactive)	> 100 µM (inactive)				
